Assay results from patent EP3248604A1, “AGENTS FOR MODULATION OF WNT-TCF SIGNALLING AND USES THEREOF” (UNIVERSITE DE GENEVE, priority 2016, dated 2017).

Key:
[1] = system: TCF targets; test: Microarray transcriptome analysis in Ls174T cells; type: cell-based, human; conditions: 16h
Protocol: Cells treated with compounds were collected in Trizol and RNA was harvested using standard protocols. Quality and quantity of RNA was checked using Nano Series (Agilent Technologies). Samples with a RNA Integrity Number (RIN) >9/10 were chosen and cDNA and cRNA samples were prepared using GeneChip IVT Express kit. Genechip hybridization was done using the same kit and applied to PrimeView U219 human array (Affymetrix) in the Genomic Platform at the Faculty of Medicine, University of Geneva.
To test the effects of CAP2 on the transcriptome in a genome-wide manner microarray analyses with Ls174T cells were performed as these have been previously used to determine the genome-wide changes driven by dnTCF activity (van der Flier et al., 2007, Gastroenterology, 132(2): 628-32), the genetic benchmark use here. Ls174T cells were treated with 5 µM CAP2 (batch 3) for 16h, and their transcriptome compared with that of controls treated with DMSO under the same conditions. This dose was chosen since it results in extended WNT-TCF target gene modulation (Table 6).

[2] = system: WNT-TCF targets; test: RT-qPCR gene expression in mCC11 primary colon cancer cells; type: cell-based, human
Protocol: RT-qPCR was performed as in Melotti et al. (2014, supra) using BioRad equipment and reagents. Cells cultured in nitro were treated with the desired concentration of drug in DMEM-F12 and reduced serum (2.5% FBS) for 16h, unless otherwise noted, and collected in Trizol (Sigma) before total RNA extraction and cDNA synthesis. Primers were as in Table 1. HPRT (gene encoding Hypoxanthine phosphoribosyltransferase 1) and βACTIN were used as housekeeping controls for normalization.
Primary colon cells CC14, CC36 and mCC11, colon cancer cell lines DLD1, HT29, Ls174T, melanoma cell line MeWo, glioblastoma cell lines U87 and U251, and the lung cancer cell line H358 were cultured in DMEM-F12 with 10% FBS under standard in nitro conditions.

[3] = Table 9, microarray, Ls174T, 5 µM (batch 3), vs DMSO
[4] = Table 10, Microarray, CAP2 5 µM
[5] = microarray, Ls174T, 5 µM, vs DMSO
[6] = 1.25µM, 16h, batch 3, vs DMSO=1

## CC1=C(C)C(=O)O[C@@H]([C@](C)(O)[C@]2(O)CC[C@@]3(O)[C@@H]4CC=C5CC=CC(=O)[C@]5(C)[C@H]4CC[C@]23C)C1 [CAP2]
[1]; [3]
  ASCL2 Fold change: -9
  AXIN2 Fold change: -4
  CDKN1A Fold change: 9
  LGR5 Fold change: -15
  cMYC Fold change: -10
[1]; [4]
  ASCL2 Fold change, Ls174T cells: -9.1
  AXIN2 Fold change, Ls174T cells: -4.1
  LGR5 Fold change, Ls174T cells: -15.1
  cMYC Fold change, Ls174T cells: -10.2
[1]; microarray, Ls174T, 5 µM
  share of the 106-gene set of TCF targets repressed by 1.5-fold or more: 70%
[1]; [5]
  downregulation of ASCL2: 9 fold
  downregulation of AXIN2: 4 fold
  downregulation of LGR5: 15 fold
[2]; [6]
  AXIN2 expression: 0.6
  LGR5 expression: 0.8
[2]; 2.5µM, 16h, batch 3, vs DMSO=1
  AXIN2 expression: 0.5
  LGR5 expression: 0.3
[2]; 5µM, 16h, batch 3, vs DMSO=1
  AXIN2 expression: 0.3
  LGR5 expression: 0.1
[2]; 10µM, 16h, batch 3, vs DMSO=1
  AXIN2 expression: 0.3
  LGR5 expression: 0.04
[2]; Table 7, 1.25µM, vs DMSO=1
  ASCL2 expression: 0.3
  AXIN2 expression: 0.6
  CDKN1A expression: 1.4
  LEF1 expression: 0.3
  LGR5 expression: 0.8
  cMYC expression: 0.5
[2]; Table 7, 2.5µM, vs DMSO=1
  ASCL2 expression: 0.2
  AXIN2 expression: 0.5
  CDKN1A expression: 2.7
  LEF1 expression: 0.4
  LGR5 expression: 0.3
  cMYC expression: 0.3
[2]; Table 7, 5µM, vs DMSO=1
  ASCL2 expression: 0.1
  AXIN2 expression: 0.3
  CDKN1A expression: 6.5
  LEF1 expression: 0.5
  LGR5 expression: 0.1
  cMYC expression: 0.1
[2]; Table 7, 10µM, vs DMSO=1
  ASCL2 expression: 0.02
  AXIN2 expression: 0.3
  CDKN1A expression: 5.3
  LEF1 expression: 0.6
  LGR5 expression: 0.04
  cMYC expression: 0.1
